According to article PMC7699892, “Repositioned Drugs for Chagas Disease Unveiled via Structure-Based Drug Repositioning” (International Journal of Molecular Sciences, 2020):
Values belong to the compound of their own block, whether it stands above or below them.

Key:
[1] = system: T. cruzi blood trypomastigote (Ninoa strain); assay: ex vivo evaluation against blood trypomastigotes, Ninoa strain; type: cell-based; conditions: Trypanosoma cruzi, 24 h at 4 °C
From the text: (§1) The high-priority hit drugs were subjected to experimental validation in vitro, ex vivo, and in vivo, together with a cytotoxicity assay. Ninoa and INC-5 strains of T. cruzi were used in this study. The Ninoa strain was obtained in 1986 by xenodiagnoses from an acute case of Chagas’ disease in Oaxaca, Mexico, whereas the INC-5 strain was obtained in 1997 from a chronic case of Chagas’ disease in a person in Guanajuato, Mexico.
(§2) Ex vivo evaluation of different FDA-approved drugs against Trypanosoma cruzi blood trypomastigotes. The ex vivo evaluation of the trypanocidal activity of the FDA-approved drugs was carried out according to the methodology described above. Blood from parasite infected animals was obtained from intracardiac puncture and diluted with phosphate-buffered saline (PBS), pH 7.2, until a concentration of 2 × 10^6 blood trypomastigotes/mL was obtained. From this, 195 µL of blood/well was placed in a 96-well plate and incubated at 4 °C for 24 h with 5 µL of each drug tested at different concentrations (5 µg/mL to […]). […] After incubation, live parasites were counted in a Neubauer chamber and the IC50 was calculated. Three independent experiments by triplicate were performed.

[2] = system: T. cruzi blood trypomastigote (INC-5 strain); assay: ex vivo evaluation against blood trypomastigotes, INC-5 strain; type: cell-based; conditions: Trypanosoma cruzi; ex vivo, INC-5 strain, 24 h at 4 °C; read-out: T.cruzi blood trypomastigote IC50 INC-5
From the text: as §1, §2

[3] = system: T. cruzi epimastigote (Ninoa strain); assay: in vitro evaluation against epimastigotes, Ninoa strain (resazurin); type: cell-based; conditions: Trypanosoma cruzi, 48 h at 28 °C
From the text: (§3) The high-priority hit drugs were subjected to experimental validation in vitro, ex vivo, and in vivo, together with a cytotoxicity assay. Ninoa and INC-5 strains of T. cruzi were used in this study. […] In vitro evaluation of different FDA-approved drugs against Trypanosoma cruzi epimastigotes. The epimastigote stage of Ninoa and INC5 strains of T. cruzi were used to evaluated the in vitro trypanocidal activity of different FDA-approved drugs. Both strains were maintained in liver infusion tryptose (LIT) medium, supplemented with 10% fetal bovine serum (FBS) and 0.1% penicillin–streptomycin. They were preserved by transferring 1 × 10^6 parasites/mL into a new culture medium every week. […] All compounds were initially prepared at 10 mg/mL, using dimethyl sulfoxide (DMSO) as diluent. Serial dilutions were performed using complemented LIT medium until concentrations of 100 to 0.46 µg/mL of each drug were obtained. […] After the incubation period, 20 µL of 2.5 mM resazurin solution were added to each well and incubated for 3 h. All assays were carried out in triplicate.

[4] = system: T. cruzi epimastigote (INC-5 strain); assay: in vitro evaluation against epimastigotes, INC-5 strain (resazurin); type: cell-based; conditions: Trypanosoma cruzi, 48 h at 28 °C
From the text: as §3

T. cruzi = system: T. cruzi; parameters: method as in per drug in column Reference of Table 2; conditions: class of literature evidence of trypanocidal activity; ref per drug in Table 2; cited from earlier work; note: key: ? indicates unknown activity; + indicates indirect evidence of activity; ++ indicates direct evidence of activity
T. cruzi Ninoa strain = assay: in vivo short-term trypanocidal activity (parasitemia) in infected CD1 mice, Ninoa strain; parameters: species or system Trypanosoma cruzi in CD1 mice; conditions: for Parasitemia inhibition percentage over the time, 2 horas Ninoa / Parasitemia inhibition percentage over the time, 4 horas Ninoa / Parasitemia inhibition percentage over the time, 6 horas Ninoa: 100 mg/kg oral; for parasitemia inhibition: mice infected with Ninoa strain, single oral dose 100 mg/kg, eight hours after administration
Procedure: (§4) Parasitemia was monitored at 2, 4, 6, and 8 h after administration (see Figure 2).
(§5) CD1 strain mice, 6–8 weeks old, were used to maintain Ninoa and INC-5 strains of T. cruzi. Animals were given by the University of Science and Arts of Chiapas. To maintain the strains, animals were intraperitoneally inoculated every 14 days with 1 × 10^5 blood trypomastigote, obtained from parasite-infected mice. Parasitemia was monitored every three days by the Pizzi method. For this, 5 µL of blood from the caudal vein of infected mice were deposited on a slide and evenly distributed with an 18 × 18 mm coverslip. Parasite counting was performed by observing 15 microscopic fields using a 40 × objective lens. For the in vivo short term evaluation of the trypanocidal activity of the FDA-approved drugs, six groups of six CD1 mice each with homogeneous weight and parasitemia were used.
(§6) In vivo short-term evaluation of the trypanocidal activity of the FDA-approved drugs. Six groups of six CD1 female mice were infected with blood trypomastigotes of Ninoa and INC-5 strains following the methodology previously described in Romanha et al. and in Díaz-Chiguer et al.. At day 13 post-infection, when the infected mice reached an average of 5 × 10^6 parasites/mL, a single dose of the FDA-approved drugs at 100 mg/kg body weight was orally administered. Parasitemia was monitored following the Pizzi method at 2, 4, 6, and 8 h post-treatment […] using mineral oil as a vehicle. […] Mice examination was performed as stated in the Norma Official Mexicana (NOM-062-Z00-1999), published on August 2009.

T. cruzi INC-5 strain = assay: in vivo short-term trypanocidal activity (parasitemia) in infected CD1 mice, INC-5 strain; parameters: species or system Trypanosoma cruzi in CD1 mice; conditions: for Parasitemia inhibition percentage over the time, 2 horas INC-5 / Parasitemia inhibition percentage over the time, 4 horas INC-5 / Parasitemia inhibition percentage over the time, 6 horas INC-5: 100 mg/kg oral; for parasitemia inhibition: mice infected with INC-5 strain, single oral dose 100 mg/kg, eight hours after administration
Procedure: as §4, §5, §6

T. cruzi epimastigotes = system: T. cruzi epimastigotes; parameters: method as in PMID 32560043; conditions: cited from earlier work
[5] = 6 horas (first column so headed)
[6] = 6 horas (second, last column so headed)

IC50 [2]: > 100 µM | IC50 [3]: > 400 µM | IC50 [4]: > 400 µM
Compound: Cn1c(=O)c2[nH]cnc2n(C)c1=O [Theophylline]
IC50 [1]: > 100 µM

Compound: CC(=O)O[C@H]1C(=O)[C@@]2(C)[C@H]([C@H](OC(=O)c3ccccc3)[C@]3(O)C[C@H](OC(=O)[C@H](O)[C@@H](NC(=O)c4ccccc4)c4ccccc4)C(C)=C1C3(C)C)[C@]1(OC(C)=O)CO[C@@H]1C[C@@H]2O [Paclitaxel]
Trypan. Activity (T. cruzi): ++

Compound: Nc1nc2nc[nH]c2c(=S)[nH]1 [Tioguanine]
Trypan. Activity (T. cruzi): ++

Compound: NC(=O)c1cccnc1 [Nicotinamide]
Trypan. Activity (T. cruzi): ++

Compound: COc1ccc2cc([C@H](C)C(=O)O)ccc2c1 [Naproxen]
IC50 [1]: 58.5 ± 0.07 µM | IC50 [2]: 38.3 ± 0.06 µM | IC50 [3]: > 400 µM | IC50 [4]: > 400 µM | Parasitemia inhibition percentage over the time, 2 horas Ninoa (T. cruzi Ninoa strain): 100 | Parasitemia inhibition percentage over the time, 4 horas Ninoa (T. cruzi Ninoa strain): 71 | Parasitemia inhibition percentage over the time, 6 horas Ninoa (T. cruzi Ninoa strain; [5]): 28.5 | Parasitemia inhibition percentage over the time, 6 horas Ninoa (T. cruzi Ninoa strain; [6]): 14.2 | parasitemia inhibition (T. cruzi Ninoa strain): 85.8% | Parasitemia inhibition percentage over the time, 2 horas INC-5 (T. cruzi INC-5 strain): 100 | Parasitemia inhibition percentage over the time, 4 horas INC-5 (T. cruzi INC-5 strain): 85.7 | Parasitemia inhibition percentage over the time, 6 horas INC-5 (T. cruzi INC-5 strain; [5]): 71.4 | Parasitemia inhibition percentage over the time, 6 horas INC-5 (T. cruzi INC-5 strain; [6]): 57.1 | parasitemia inhibition (T. cruzi INC-5 strain): 42.9%

IC50 [2]: 21.5 ± 0.03 µM | IC50 [3]: > 400 µM | IC50 [4]: > 400 µM
Compound: Nc1nc(=O)c2nc(CNc3ccc(C(=O)N[C@@H](CCC(=O)O)C(=O)O)cc3)cnc2[nH]1 [Folic acid]
IC50 [1]: 28.1 ± 0.01 µM | Parasitemia inhibition percentage over the time, 2 horas Ninoa (T. cruzi Ninoa strain): 100 | Parasitemia inhibition percentage over the time, 4 horas Ninoa (T. cruzi Ninoa strain): 71 | Parasitemia inhibition percentage over the time, 6 horas Ninoa (T. cruzi Ninoa strain; [5]): 42.8 | Parasitemia inhibition percentage over the time, 6 horas Ninoa (T. cruzi Ninoa strain; [6]): 42.8 | parasitemia inhibition (T. cruzi Ninoa strain): 57.2% | Parasitemia inhibition percentage over the time, 2 horas INC-5 (T. cruzi INC-5 strain): 100 | Parasitemia inhibition percentage over the time, 4 horas INC-5 (T. cruzi INC-5 strain): 50 | Parasitemia inhibition percentage over the time, 6 horas INC-5 (T. cruzi INC-5 strain; [5]): 33.3 | Parasitemia inhibition percentage over the time, 6 horas INC-5 (T. cruzi INC-5 strain; [6]): 33.3 | parasitemia inhibition (T. cruzi INC-5 strain): 66.7%

IC50 [2]: > 100 µM | IC50 [3]: > 400 µM | IC50 [4]: > 400 µM
Compound: Nc1nc2c(c(=O)[nH]1)N(C=O)C(CNc1ccc(C(=O)N[C@@H](CCC(=O)O)C(=O)O)cc1)CN2 (some centres unmarked) [Leucovorin]
IC50 [1]: > 100 µM

Compound: Cc1cn(-c2cc(NC(=O)c3ccc(C)c(Nc4nccc(-c5cccnc5)n4)c3)cc(C(F)(F)F)c2)cn1 [Nilotinib]
growth inhibitory activity on T. cruzi epimastigotes (T. cruzi epimastigotes): micromolar range

Compound: Cc1cnc(C(=O)NCCc2ccc(S(=O)(=O)NC(=O)NC3CCCCC3)cc2)cn1 [Glipizide]
growth inhibitory activity on T. cruzi epimastigotes (T. cruzi epimastigotes): micromolar range

Compound: CC(N)C12CC3CC(CC(C3)C1)C2 (centres unmarked) [Rimantadine]
Trypan. Activity (T. cruzi): ++

Compound: CC(=O)CCCCn1c(=O)c2c(ncn2C)n(C)c1=O [Pentoxifylline]
IC50 [1]: > 100 µM | IC50 [2]: > 100 µM | IC50 [3]: > 400 µM | IC50 [4]: > 400 µM | Trypan. Activity (T. cruzi): +

Compound: CC(=O)[C@H]1CC[C@H]2[C@@H]3CCC4=CC(=O)CC[C@]4(C)[C@H]3CC[C@]12C [Progesterone]
Trypan. Activity (T. cruzi): +

IC50 [2]: > 100 µM | IC50 [3]: > 400 µM | IC50 [4]: > 400 µM
Compound: N[C@@H](CCC(=O)N[C@@H](CS)C(=O)NCC(=O)O)C(=O)O [Glutathione]
IC50 [1]: > 100 µM

Compound: Nc1nc(N)c2nc(-c3ccccc3)c(N)nc2n1 [Triamterene]
Trypan. Activity (T. cruzi): ++

Compound: Cc1ccc(-c2cc(C(F)(F)F)nn2-c2ccc(S(N)(=O)=O)cc2)cc1 [Celecoxib]
IC50 [1]: > 100 µM | IC50 [2]: > 100 µM | IC50 [3]: > 400 µM | IC50 [4]: > 400 µM

Compound: C=C[C@H]1C[N@@]2CC[C@H]1C[C@H]2[C@H](O)c1ccnc2ccc(OC)cc12 [Quinine]
Trypan. Activity (T. cruzi): ++

Compound: CN(C)c1ccc(O)c2c1C[C@H]1C[C@H]3[C@H](N(C)C)C(O)=C(C(N)=O)C(=O)[C@@]3(O)C(O)=C1C2=O [Minocycline]
Trypan. Activity (T. cruzi): ++

IC50 [2]: 115.2 ± 0.17 µM | IC50 [3]: 7.09 ± 0.12 µM | IC50 [4]: 6.47 ± 0.42 µM
Compound: CC1CS(=O)(=O)CCN1/N=C/c1ccc([N+](=O)[O-])o1 (centres unmarked) [Nifurtimox]
IC50 [1]: 167.1 ± 0.03 µM | Parasitemia inhibition percentage over the time, 2 horas Ninoa (T. cruzi Ninoa strain): 100 | Parasitemia inhibition percentage over the time, 4 horas Ninoa (T. cruzi Ninoa strain): 50 | Parasitemia inhibition percentage over the time, 6 horas Ninoa (T. cruzi Ninoa strain; [5]): 27.0 | Parasitemia inhibition percentage over the time, 6 horas Ninoa (T. cruzi Ninoa strain; [6]): 22.2 | parasitemia inhibition (T. cruzi Ninoa strain): 77.8% | Parasitemia inhibition percentage over the time, 2 horas INC-5 (T. cruzi INC-5 strain): 100 | Parasitemia inhibition percentage over the time, 4 horas INC-5 (T. cruzi INC-5 strain): 66.6 | Parasitemia inhibition percentage over the time, 6 horas INC-5 (T. cruzi INC-5 strain; [5]): 55.5 | Parasitemia inhibition percentage over the time, 6 horas INC-5 (T. cruzi INC-5 strain; [6]): 27.7 | parasitemia inhibition (T. cruzi INC-5 strain): 72.3%

Compound: CC12CC3CC(C)(C1)CC(N)(C3)C2 [Memantine]
Trypan. Activity (T. cruzi): ++

Compound: CC(C)(C)NC(=O)[C@@H]1C[C@@H]2CCCC[C@@H]2CN1C[C@@H](O)[C@H](Cc1ccccc1)NC(=O)[C@H](CC(N)=O)NC(=O)c1ccc2ccccc2n1 [Saquinavir]
Trypan. Activity (T. cruzi): ++

Compound: COc1cc(Cc2cnc(N)nc2N)cc(OC)c1OC [Trimethoprim]
Trypan. Activity (T. cruzi): ++

Compound: COc1ccc2c(c1)C(=O)N(CCc1ccc(S(=O)(=O)NC(=O)NC3CCCCC3)cc1)C(=O)C2(C)C [Gliquidone]
growth inhibitory activity on T. cruzi epimastigotes (T. cruzi epimastigotes): micromolar range

Compound: CC(=O)N[C@H]1[C@H]([C@H](O)[C@H](O)CO)OC(C(=O)O)=C[C@@H]1N=C(N)N [Zanamivir]
Trypan. Activity (T. cruzi): ++

Compound: CSc1ccc2c(c1)N(CCC1CCCCN1C)c1ccccc1S2 (centres unmarked) [Thioridazine]
Trypan. Activity (T. cruzi): ++

Compound: O=C(Cn1ccnc1[N+](=O)[O-])NCc1ccccc1 [Benznidazole]
IC50 [1]: 156 ± 0.11 µM | IC50 [2]: 130.6 ± 0.08 µM | IC50 [4]: 19.9 ± 0.23 µM

Compound: CN(C)CCCC1(c2ccc(F)cc2)OCc2cc(C#N)ccc21 (centres unmarked) [Citalopram]
Trypan. Activity (T. cruzi): ++

Compound: CC1=C(/C=C/C(C)=C/C=C/C(C)=C\C(=O)O)C(C)(C)CCC1 [Isotretinoin]
Trypan. Activity (T. cruzi): ++

Compound: COc1ccc(Cl)cc1C(=O)NCCc1ccc(S(=O)(=O)NC(=O)NC2CCCCC2)cc1 [Glyburide]
growth inhibitory activity on T. cruzi epimastigotes (T. cruzi epimastigotes): micromolar range

Compound: O=C(O)P(=O)(O)O [Foscarnet]
Trypan. Activity (T. cruzi): ++

Compound: COc1cccc2c1C(=O)c1c(O)c3c(c(O)c1C2=O)C[C@@](O)(C(C)=O)C[C@@H]3O[C@H]1C[C@H](N)[C@H](O)[C@H](C)O1 [Aunomycin]
Trypan. Activity (T. cruzi): +

Compound: Nc1nc2[nH]cc(CCc3ccc(C(=O)N[C@@H](CCC(=O)O)C(=O)O)cc3)c2c(=O)[nH]1 [Pemetrexed]
Trypan. Activity (T. cruzi): +

Compound: O=C(O)c1ccccc1 [Benzoic acid]
Trypan. Activity (T. cruzi): ++
